US20050250801A1, “Method of treating cancer with azaspirane compositions” (priority 2003, published 2005)

What was measured:
HUVEC cells [1] = test: Induction of apoptosis, DNA fragmentation analysis, HUVEC; format: cell-based, human; details: 16 hours treatment
Procedure: (§1) T84, CaCo-2 and HUVEC cells, respectively, were grown in 100 mm dishes for 7-9 days, culture media for HUVEC was EGM-2 (Clonetics, BioWhitaker Co.), until they reached semi-confluency. Cell monolayers were then treated for 12 hours (CaCo-2 and T84) and 16 hours (HUVEC), respectively, at the indicated concentrations of N,N,-diethyl-8,8-dipropyl-2-azaspiro[4,5]decane-2-propanamine dimaleate (Compound 1) in culture media. Cells were collected by trypsinization and the apoptotic DNA was isolated from these cells following the instructions of the DNA fragmentation analysis kit (Boehringer Mannheim Corp., Indianapolis, Ind.). The apoptotic DNA was evaluated using 1.5% agarose gel electrophoresis followed by staining with ethidium bromide. M denotes the lane containing molecular weight markers of DNA.

HUVEC = HUVEC cell migration assay (Boyden chamber); format: cell-based; details: Homo sapiens, 5 hours incubation, read-out: IC50 Concentration, Migration
Procedure: Migration is assessed using the 48-well Boyden chamber and 8 μm pore size collagen-coated (10 μg/ml rat tail collagen; Collaborative Laboratories) polycarbonate filters (Osmonics, Inc.). The bottom chamber wells receive 27-29 μl of Dulbecco's Modified Eagle Medium (“DMEM”) alone (baseline) or medium containing chemo-attractant (bFGF, VEGF or […] cell conditioned medium). The top chambers receive 45 μl of a HUVEC cell suspension (1×10^6 cells/ml) prepared in DMEM+1% Bovine Serum Albumin (“BSA”) with or without test compound. After 5 hours incubation at 37° C. the membrane is rinsed in Phosphate Buffer Saline (“PBS”), fixed and stained in Diff-Quick solutions. The filter is placed on a glass slide with the migrated cells facing down and cells on top are removed using a Kimwipe. The testing is performed in 4-6 replicates and five fields are counted from each well. Negative unstimulated control values are subtracted from stimulated control and drug treated values and data is plotted as mean migrated cell±Standard Deviation.

HUVEC cells [2] = test: Inhibition of HUVEC proliferation (WST-1, Example 2); format: cell-based; details: Homo sapiens
SK-OV-3 = test: NCI in vitro SRB assay, Ovarian Cancer; format: cell-based
Procedure: (§2) An in vitro assay which tested the ability of N,N,-diethyl-8,8-dipropyl-2-azaspiro[4,5]decane-2-propanamine dimaleate (Compound 1) to inhibit the growth of known cancer cell lines was performed by the National Cancer Institute in accordance with standard procedures. See: Lin, Z. X., Hoult, J. R., and Raman, A. Sulphorhodamine B assay for measuring proliferation of a pigmented melanocyte cell line and its application to the evaluation of crude drugs used in the treatment of vitiligo. J Ethnopharmacol. 66: 141-150, 1999. Briefly, selected tumor cell lines were cultured in media containing five different concentrations of Compound 1. After 48 hours of continuous exposure, a sulforhodamine B (SRB) assay was used to estimate cell viability or growth via optical measurements.
(§3) From the measurements, the following values were determined: 1) the concentration of Compound 1 at which a tumor cell growth inhibition of 50% (relative to control) occurs (GI50), 2) the concentration of Compound 1 at which no growth occurs (total growth inhibition, TGI), and 3) the concentration of Compound 1 at which the […] (LC 50). […] FIG. 6 illustrates, graphically, tumor cell growth as a function of Compound 1 concentration of the scanned tumor cell lines.

OVCAR-8 = test: NCI in vitro SRB assay, Ovarian Cancer; format: cell-based
Procedure: as §2, §3

OVCAR-3 = test: NCI in vitro SRB assay, Ovarian Cancer; format: cell-based
Procedure: as §2, §3

IGROV1 = test: NCI in vitro SRB assay, Ovarian Cancer; format: cell-based
Procedure: as §2, §3

OVCAR-5 = test: NCI in vitro SRB assay, Ovarian Cancer; format: cell-based
Procedure: as §2, §3

T84 cells = test: Induction of apoptosis, DNA fragmentation analysis, T84; format: cell-based, human; details: 12 hours treatment
Procedure: as §1

## CCCC1(CCC)CCC2(CCN(CCCN(CC)CC)C2)CC1.O=C(O)/C=C\C(=O)O.O=C(O)/C=C\C(=O)O [Compound 1, N,N,-diethyl-8,8-dipropyl-2-azaspiro[4,5]decane-2-propanamine dimaleate]
HUVEC cells [1]
  DNA ladder formation (apoptosis): formation of DNA laddering in a dose-dependent manner
HUVEC
  IC50: 0.53 µM
HUVEC cells [2]
  IC50: 1.25 to 2.5 µM
SK-OV-3; Homo sapiens, SK-OV-3, read-out: Log10 LC50 (converted)
  CC50: 58.9 µM
SK-OV-3; Homo sapiens, SK-OV-3, read-out: Log10 GI50 (converted)
  GI50: 4.57 µM
SK-OV-3; SK-OV-3
  Log10 TGI: −5.10
OVCAR-8; Homo sapiens, OVCAR-8, read-out: Log10 LC50 (converted)
  CC50: > 100 µM
OVCAR-8; Homo sapiens, OVCAR-8, read-out: Log10 GI50 (converted)
  GI50: 2.69 µM
OVCAR-8; OVCAR-8
  Log10 TGI: −4.92
OVCAR-3
  Log10 TGI: −5.21
OVCAR-3; Homo sapiens, read-out: Log10 GI50 (converted)
  GI50: 2.34 µM
IGROV1; Homo sapiens, IGROV-1, read-out: Log10 LC50 (converted)
  CC50: > 100 µM
IGROV1; Homo sapiens, IGROV-1, IGROV1, read-out: Log10 GI50 (converted)
  GI50: 2.45 µM
IGROV1; IGROV1
  Log10 TGI: >−4.00
OVCAR-5; Homo sapiens, OVCAR-5, read-out: Log10 LC50 (converted)
  CC50: 7.08 µM
OVCAR-5; Homo sapiens, OVCAR-5, read-out: Log10 GI50 (converted)
  GI50: 2.4 µM
OVCAR-5; OVCAR-5
  Log10 TGI: −5.39
T84 cells
  DNA ladder formation (apoptosis): formation of DNA laddering in a dose-dependent manner
